The record followed here is PubChem BioAssay AID2060325 (Molecular Pharmacology Branch, DTP, NCI, 2025).

Usually viability, T/C stands for the result in the treated group divided by that in the control group, in per cent. Usually IC50 stands for the midpoint of a concentration-inhibition curve.

Where “and” joins values, the source holds several entries; their conditions need not be identical. Equal entries are not always repeated.

The test relates to SK-OV-3 multi-cell spheroids, viability. Kind of test: Anticancer human tumor SK-OV-3 cell line growth inhibition [IpAb].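 On viability, T/C: viability read after seven days of drug exposure; percent of DMSO vehicle control luminescence.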 Conditions: for viability, T/C: stronger effect = lower value. The source says: Combinatorial screen of targeted agents with ipatasertib and abemaciclib in multi-cell type tumor spheroids
A high-throughput screen of multi-cell type tumor spheroids was designed to identify active combinations of targeted small molecules and ipatasertib or abemaciclib. Complex spheroids include a stromal component modeled by human endothelial cells (HUVEC) and fibroblasts modeled by human mesenchymal stem cells (MSCs). The concentration ranges selected for each drug and investigational agent were based upon clinically achievable concentrations if the clinical Cmax of the agent was known.
Compounds. The drugs and investigational agents: ipatasertib (NSC767898), abemaciclib(NSC768073), selumetinib (NSC741078), trametinib (758246), adavosertib (NSC754352), everolimus (NSC733504), sapanisertib (NSC764658), vemurafenib (NSC761431), venetoclax (NSC766270), copanlisib (NSC809693), apelisib (NSC765974), palbociblib (NSC758247), vemurafenib (NSC761431), dabrafenib (NSC764134), ravoxertinib (NSC781343), BMS-387032 (NSC767048), sotorasib (NSC818433), talazoparib (NSC767125) and afursertib (NSC778305), were obtained from the National Cancer Institute (NCI) Developmental Therapeutics Program Chemical Repository. The FDA-approved anticancer drug set is available from the NCI Developmental Therapeutics Program. […] The stock solutions were prepared in dimethyl sulfoxide (DMSO, Sigma-Aldrich, St. Louis, MO, cat. D2650) at 800-fold the tested concentration and stored at -70 degrees C prior to their use. All drugs and investigational agents were tested over a range starting from a high concentration at or near the clinical Cmax and decreasing in half-log increments. If the clinical Cmax for an agent had not been determined, the highest concentration tested was 10 microM.
NCI60 Cell Culture. NCI60 cell lines were obtained from the NCI Developmental Therapeutics Program Tumor Repository. For each lot of cells, the Repository performed Applied Biosystems AmpFLSTR Identifiler testing with PCR amplification to confirm consistency with the published Identifier STR profile for each cell line. Cells were kept in continuous culture for no more than 20 passages. The optimal seeding densities for each of the cell lines at each time point assessed were determined prior to performing the concentration response studies. Briefly, the NCI60 human tumor lines were grown as monolayers in RPMI 1640 medium supplemented with 10% FBS and 2 mmol/L L-glutamine.
An additional 9 lines were from the NCI60 cell line panel including MDA-MB-231 breast carcinoma, MDA-MB-468 breast carcinoma, MCF7 breast carcinoma, Hs578T breast carcinoma, MALME-3M melanoma, SK-MEL-2 melanoma, SK-OV-3 ovarian carcinoma, DU-145 prostate carcinoma, PC-3 prostate carcinoma, all cell lines along with major genetic alterations are listed on Table 2. Pooled donor human umbilical vein endothelial cells (HUVEC, Lonza, cat. CC-2519) and human mesenchymal stem cells (hMSC, Lonza, cat. PT-2501) were purchased from Lonza (Walkersville, MD).
PDMR cell lines were grown in complete medium (DC medium): Dulbecco's modified Eagle's medium (DMEM)/F12 supplemented with 5% fetal bovine serum (FBS), 2 mM L-glutamine, 100 U/mL penicillin and 100 µg/ml streptomycin, 0.4 µg/ml hydrocortisone, 10 ng/ml epidermal growth factor (EGF) recombinant human protein, 24 µg/mL adenine, and 0.1 mg/mL primocin. During culture from frozen stock vials, PDMR cells were cultured in the same medium containing 10 µM Y-27632 (see Table 3). The PDCs were cultured in complete DMEM/F12 media without 10 microM Y-27632 dihydrochloride for at least two passages prior to the screen. The pooled donor HUVEC and hMSC were cultured in endothelial cell growth medium 2 (PromoCell, Heidelberg, Germany, cat. C-22011) and mesenchymal stem cell growth medium 2 (PromoCell, cat. C-28009), respectively. For all experiments, HUVEC and hMSC were used at passages </=5.
[…]

`C=CC(=O)N1CCN(c2nc(=O)n(-c3c(C)ccnc3C(C)C)c3nc(-c4c(O)cccc4F)c(F)cc23)C(C)C1` (centres undefined): the viability, T/C was 100% and 104% (compound 0.0316 µM); 107% and 105% (compound 0.1 µM); 111% and 117% (compound 0.316 µM); 115% and 130% (compound 1 µM); 125% and 120% (compound 3.16 µM); 77.3% and 82.5% (compound 10 µM). Besides, under “curve of compound”, the IC50 is over 10 µM.
Take `CC(C)NCC(C(=O)N1CCN(c2ncnc3c2C(C)CC3O)CC1)c1ccc(Cl)cc1` (centres undefined): the viability, T/C was 69% [middle of 13 runs] (compound 0.1 µM); 37.8% [middle of 13 runs] (compound 0.316 µM); 21.5% [middle of 13 runs] (compound 1 µM); 15.8% [middle of 13 runs] (compound 3.16 µM); 10.5% [middle of 12 runs] (compound 10 µM). Further, the IC50 (compound alone, run of 05/18/2021) is 202 nM [middle of 13 runs].
Consider `Cc1nc(NC(=O)N2CCCC2C(N)=O)sc1-c1ccnc(C(C)(C)C(F)(F)F)c1` (centres undefined), for which the viability, T/C reads like this: (compound 0.0316 µM) 91.9% and 91.3%; (compound 0.1 µM) 78.5% and 80.2%; (compound 0.316 µM) 47.3% and 49%; (compound 1 µM) 20.7% and 26.9%; (compound 3.16 µM) 10.9% and 10.7%; (compound 10 µM) 5.21% and 4.93%. Further, the half-maximal inhibitory concentration (IC50) (curve of compound) was 0.291 µM and 0.337 µM.
On to `Cn1ncc(Cl)c1-c1cc(C(=O)NC(CN)Cc2cccc(F)c2)sc1Cl` (centres undefined), for which the viability, T/C is, setting by setting: (compound 0.0316 µM) 73.4% and 80.3%; (compound 0.1 µM) 52.8% and 48.3%; (compound 0.316 µM) 27.5% and 26.4%; (compound 1 µM) 16.1% and 19%; (compound 3.16 µM) 8.76% and 8.97%; (compound 10 µM) 0.31% and 1.17%. Further, the concentration for half-maximal inhibition (IC50) (curve of compound) was 0.106 µM and 0.0961 µM.
In the case of `Cn1nccc1Nc1nccc(-c2ccn(C(CO)c3ccc(Cl)c(F)c3)c(=O)c2)n1` (centres undefined), the viability, T/C was 101% and 98.5% (compound 0.0316 µM); 103% and 108% (compound 0.1 µM); 108% and 116% (compound 0.316 µM); 126% (compound 1 µM); 94.8% and 100% (compound 3.16 µM); 52.2% and 48.9% (compound 10 µM). Besides, for the setting “curve of compound”, the half-maximal inhibitory concentration (IC50) is > 10 µM and 9.73 µM.
Take `Cn1cnc2c(F)c(Nc3ccc(Br)cc3Cl)c(C(=O)NOCCO)cc21` + CC(C)NCC(C(=O)N1CCN(c2ncnc3c2C(C)CC3O)CC1)c1ccc(Cl)cc1: the IC50 is 0.164 µM (curve of first compound, second compound 0.1 µM); under 0.00949 µM (curve of first compound, second compound 0.316 µM); under 0.00949 µM (curve of first compound, second compound 1 µM); under 0.00949 µM (curve of first compound, second compound 3.16 µM); under 0.00949 µM (curve of first compound, second compound 10 µM). Also, the viability, T/C runs as follows: (second compound 0.1 µM, first compound 0.00949 µM) 61.9%; (second compound 0.1 µM, first compound 0.03 µM) 62%; (second compound 0.1 µM, first compound 0.0949 µM) 49.1%; (second compound 0.1 µM, first compound 0.3 µM) 48%; (second compound 0.1 µM, first compound 0.949 µM) 35.8%; (second compound 0.1 µM, first compound 3 µM) 19.7%. Moreover, the viability, T/C (second compound 0.316 µM, first compound 0.00949 µM) was 33.9%; the viability, T/C (second compound 0.316 µM, first compound 0.03 µM) is 30.4%; the viability, T/C (second compound 0.316 µM, first compound 0.0949 µM) is 25.8%; the viability, T/C (second compound 0.316 µM, first compound 0.3 µM) was 21.6%; the viability, T/C (second compound 0.316 µM, first compound 0.949 µM) is 18.6%; the viability, T/C (second compound 0.316 µM, first compound 3 µM) is 10.3%. The viability, T/C is 19.6% (second compound 1 µM, first compound 0.00949 µM); 16.7% (second compound 1 µM, first compound 0.03 µM); 15.2% (second compound 1 µM, first compound 0.0949 µM); 11.8% (second compound 1 µM, first compound 0.3 µM); 9.36% (second compound 1 µM, first compound 0.949 µM); 4.86% (second compound 1 µM, first compound 3 µM). The viability, T/C (second compound 3.16 µM, first compound 0.00949 µM) was 13.5%; the viability, T/C (second compound 3.16 µM, first compound 0.03 µM) was 11.4%; the viability, T/C (second compound 3.16 µM, first compound 0.0949 µM) was 9.44%; the viability, T/C (second compound 3.16 µM, first compound 0.3 µM) is 9.1%; the viability, T/C (second compound 3.16 µM, first compound 0.949 µM) was 6.43%; the viability, T/C (second compound 3.16 µM, first compound 3 µM) was 3.45%. The viability, T/C (second compound 10 µM, first compound 0.00949 µM) was 6.91%; the viability, T/C (second compound 10 µM, first compound 0.03 µM) is 7.44%; the viability, T/C (second compound 10 µM, first compound 0.0949 µM) is 7.64%; the viability, T/C (second compound 10 µM, first compound 0.3 µM) is 5.26%; the viability, T/C (second compound 10 µM, first compound 0.949 µM) was 4.92%; the viability, T/C (second compound 10 µM, first compound 3 µM) was 2.28%.
